Laboratory results from BindingDB's records for doi:10.1016/0960-894X(96)00290-9 (1996).

Assay: Inhibition of pancreatic cholesterol esterase using p-nitrophenylacetate or cholesteryl [1-14C]-oleate as substrates

| Compound | IC50 [µM] |
| --- | --- |
| CC(C)(C)[C@H]1CC[C@H](CC(=O)C(F)(F)C(F)(F)F)CC1 [1-(4-tert-Butyl-cyclohexyl)-3,3,4,4,4-pentafluoro-butan-2-one] | 10 |
| CCCCCCCCCCCCC(F)(F)C(=O)C[C@H]1CC[C@]2(C)CCCC[C@H]2C1 [3,3-Difluoro-1-((2S,4aS,8aS)-4a-methyl-decahydro-naphthalen-2-yl)-pentadecan-2-one] | > 100 |
